Results from a melting point compilation (Tetko et al.; mined from patent text by program, amines drawn as free bases though some values may be those of a salt).

First: CCOC(=O)c1ccc(OC(=O)CCCCC(=O)Oc2ccc(C(=O)OCC)cc2)cc1
Second: COC(=O)CCCCCOc1ccc(NC(=O)OCCO)cc1
The melting point of the first is higher: 82 to 83 °C for the first, 69.5 to 71.5 °C for the second.

First: O=S(=O)(N[C@H](CO)C1CCCCC1)c1ccc(Cl)cc1
Second: COCS(=O)(=O)c1ccc(C(CC2CCCC2)C(=O)O)cc1 (stereo not given)
The melting point of the first is lower: 115 to 118 °C for the first, 184 to 187 °C for the second.

Compared with `COC(=O)c1ccc2nc(C)n(Cc3ccc(Cl)cc3OC)c2n1`, `O=C(Cn1c(-c2ccc(Cl)cc2)nc2cccnc21)Nc1ccccc1` is higher in melting point: 166 to 168 °C for the first, 240 to 242 °C for the second.

First: COC(=O)C1=C(C)Nc2ccccc2NC1c1cccc([N+](=O)[O-])c1 (stereo not given)
Second: CCn1c2ccccc2c2cc(C=Cc3ccc([N+](=O)[O-])cc3)ccc21
The melting point of the first is lower: 124 to 126 °C for the first, 168 °C for the second.

First: OC1(c2cccc(-c3ccccc3)c2)CN2CCC1CC2 (stereo not given)
Second: O=C(O)c1ccc2[nH]cc(CCCCN3CCCC(Cc4ccccc4)C3)c2c1 (stereo not given)
The melting point of the first is higher: 165 to 166 °C for the first, 144 to 147 °C for the second.

First: CCCCc1nc(C(O)c2ccccc2)c(C(=O)O)n1Cc1ccc(-c2ccccc2C(=O)O)cc1 (stereo not given)
Second: O=C(Cc1ccccc1)c1ccc(C(=O)Cc2ccccc2)cc1
The melting point of the first is higher: 192 to 194 °C for the first, 171 to 173 °C for the second.

First: O=C1OC(=O)c2c3cc(Cl)ccc3cc3cccc1c23
Second: COCCCn1ccc2c3c(c(-c4ccccc4Cl)cc21)C(=O)NC3=O
The melting point of the first is higher: 325 to 327 °C for the first, 171 to 172 °C for the second.

First: CCCCCCCCCCCCCCCCCCCCC(=S)NCCN1CCOCC1
Second: CCCCCCCCCC(=O)Nc1cc(C(=O)N2CCCCC2CO)c2cc[nH]c2c1 (stereo not given)
The melting point of the first is lower: 61 °C for the first, 126 to 129 °C for the second.

Compared with `CC1(C)Cc2c(N)c(Cl)cc(-c3nc(C4CCN(CCCC#N)CC4)no3)c2O1`, `CC(=O)c1ccc(C2CCN(C(C)=O)CC2)c(N)c1` is higher in melting point: 151 °C for the first, 220 to 222 °C for the second.

Compared with `CCc1c(-c2ccc(OCc3ccccc3)cc2)c2ccc3c(N)ccc1n32`, `CS(=O)(=O)c1ccc(COc2cc(C=C3SC(=S)N(CC(=O)O)C3=O)ccc2OCc2ccccc2)cc1` is higher in melting point: 123 to 127 °C for the first, 207 to 211 °C for the second.

Compared with `O=C(O)Cc1c(-c2ccccc2)nn2cccnc12`, `O=C(O)CCC1=C(n2nc(-c3c(-c4ccccc4)nn4ccccc34)ccc2=O)CCCC1` is higher in melting point: 78 to 90 °C for the first, 184 to 185 °C for the second.

First: CC12CC(N3CCOCC3)C(O)CC1CCC1C2CCC2(C)C(O)C(N3CCCC3)CC12 (stereo not given)
Second: C1=C(CCCN2CCCCC2)c2ccccc2C12CCCCC2
The melting point of the first is higher: 226 °C for the first, 146 to 148 °C for the second.

First: N#Cc1cncc(I)c1O
Second: COC(=O)c1ccc(N)cc1O
The melting point of the first is higher: over 245 °C for the first, 118 to 120 °C for the second.

First: O=C(Cc1ccncc1)N1CCC(=C2c3ccc(Cl)cc3CCc3c(On4nnc5ccccc54)ccnc32)CC1
Second: Cc1ccn(-c2ccc(C(=O)N3Cc4ccnn4Cc4ccccc43)c(Cl)c2)n1
The melting point of the first is lower: 98.6 to 102 °C for the first, 187 to 188 °C for the second.

First: C=CCn1cc(Cn2ccnc2)c2cc(O)ccc21
Second: Cc1ccc(O)c(-c2cc3ccccn3n2)c1
The melting point of the first is higher: 165 to 167 °C for the first, 108 °C for the second.

First: CON=C(C(=O)OC)c1nsc(N)n1
Second: COC(C)=NS(=O)(=O)c1nc(-c2ccc(O)cc2)ns1
The melting point of the first is lower: 172 to 174 °C for the first, 190 to 192 °C for the second.

First: CCOC(=O)c1cn2c3c(c(-c4cc(C)nc(C)c4)c(F)c(SCc4ccccc4)c3c1=O)OC[C@@H]2C
Second: Cc1cc(-c2cc3c(cc2F)c(=O)c(C(=O)O)cn3C2CC2)cc(C)n1
The melting point of the first is lower: 175 to 178 °C for the first, 300 to 302 °C for the second.

First: CCCCCCOC1CCC(=O)N1 (stereo not given)
Second: CCCCOCCOc1ccc(-c2ccc3c(c2)C=C(C(=O)O)CCN3CC2CCCCC2)cc1
The melting point of the first is lower: 35 to 37 °C for the first, 124 to 125 °C for the second.

First: Cn1c(COc2ccc(CC(OCc3ccc(F)cc3)C(=O)O)cc2)nc2ccc(Sc3cc(C(C)(C)C)c(O)c(C(C)(C)C)c3)cc21 (stereo not given)
Second: CC(C)(C)c1cc(C(=O)Nc2cccc(OCc3cncc(Br)c3)c2)ccc1O
The melting point of the first is lower: 40 to 46 °C for the first, 105 to 111 °C for the second.

First: COc1ccc(CCNC(=O)c2ccc(S(=O)(=O)NC(=O)c3ccc(C(=O)NCCO)nc3)cc2)cc1OC
Second: COc1ccc(S(=O)(=O)C(CC=C(C)C)(Cc2cccnc2)C(=O)NO)cc1 (stereo not given)
The melting point of the first is higher: 201 to 203 °C for the first, 89 to 92 °C for the second.

First: CCN(CC)CCN(CCCCCSc1nc(-c2ccccc2)c(-c2ccccc2)[nH]1)C(=O)NC(C)C
Second: CC1(OCc2ccccc2)CCCC(C)(C(=O)Nc2ccccc2)O1 (stereo not given)
The melting point of the first is higher: 58 to 59 °C for the first, 55 to 56 °C for the second.

Compared with `CC(C)(C)OC(=O)C(=O)C=Cc1cccnc1`, `CN(CCC(=O)O)C(=O)N(c1ccc(Cl)cc1)C(C)(C)C` is higher in melting point: 51 to 52 °C for the first, 90 to 95 °C for the second.

First: C=CC(=O)N1Cc2cc(OC)ccc2SC(Cl)C1 (stereo not given)
Second: COc1ccc2c(c1)S(=O)(=O)C(C#N)=C(C)N2
The melting point of the first is lower: 97.5 to 99.5 °C for the first, 307 to 308 °C for the second.

Compared with `CC1Cc2cc3c(cc2C1)CC(C(=N)NO)C3`, `CCNc1cc(N2CCN(C(=O)OC(C)(C)C)CC2)c(F)cc1[N+](=O)[O-]` is lower in melting point: 194 to 195 °C for the first, 129 to 131 °C for the second.

Compared with `CNC(=O)c1cc2c(nc(C)n2C)c(O)c1CCC(=O)c1ccccc1`, `CCOC(=O)C1=C(N)NC(N)=C(C(=O)OCC)C1c1ccccc1OC` is lower in melting point: 284 to 285 °C for the first, 147 °C for the second.

First: NCc1ccc(S(=O)(=O)c2ccc(S(N)(=O)=O)s2)cc1
Second: Cc1cccc(-c2nc(-c3ccc(S(C)(=O)=O)cc3)sc2-c2ccnc(C)c2)c1
The melting point of the first is higher: 225 to 228 °C for the first, 134 to 138 °C for the second.

First: CCOP(=O)(/C=C/c1cn(-c2ccccc2)nc1OCc1ccc(OCc2nc(-c3cccc(C(N)=O)c3)oc2C)c(OC)c1)OCC
Second: CCOc1cc2c(cc1OCC)C(c1ccccc1)=NCC(=O)N2
The melting point of the first is lower: 127 to 128 °C for the first, 233 to 236 °C for the second.

Compared with `CNCc1nc(-c2ncn3c2CN(C)C(=O)c2c(Cl)cccc2-3)no1`, `COc1ncc(Br)c2nc(S(=O)(=O)Nc3c(Cl)cccc3Cl)nn12` is higher in melting point: 192 to 193 °C for the first, 196 to 198 °C for the second.

First: CC(C(=O)C=Cc1ccc(Cl)cc1)n1cncn1 (stereo not given)
Second: Cc1ccc(C(Br)=NOS(C)(=O)=O)cc1
The melting point of the first is higher: 115 to 116 °C for the first, 82.5 to 91.5 °C for the second.

First: Cc1c2n(c3ccccc13)C(=O)N(Cc1ncn(C(c3ccccc3)(c3ccccc3)c3ccccc3)c1C)CC2
Second: CS(=O)(=O)c1ccc(-n2nc(C(F)(F)F)cc2-c2ccc(-c3ncco3)cc2)cc1F
The melting point of the first is higher: 210 to 220 °C for the first, 140 to 142 °C for the second.

First: Cc1ccc(C#Cc2cc3ccccc3s2)s1
Second: Cc1ccnc2c1C(=O)CC(c1ccc(F)cc1F)C2 (stereo not given)
The melting point of the first is lower: 85 to 87 °C for the first, 106 to 107 °C for the second.

Compared with `COc1ncccc1-c1cc2cc(C(=O)NCCCN3CCOCC3)ccc2[nH]1`, `O=c1c2ccc(-c3nnn[nH]3)cc2oc2ccc(OCCCO)cc12` is higher in melting point: 224 to 225 °C for the first, 270 °C for the second.

`CCCN(C=O)n1cc(C(=O)OCC)c(=O)c2cc3c(cc21)OCO3` and `Cc1cc2c(cc1O)C(C)(C)CC1(CC(C)(C)c3cc(OC(C)(C)CO)c(C)cc3O1)O2` (stereo not given) cannot be ordered by melting point: 188 to 192 °C for the first, 188 to 189 °C for the second.

Compared with `COc1ccc(-c2ccc(C(=O)Nc3ccc4cc(CN5C(C)(C)CCCC5(C)C)ccc4c3)cc2)cc1`, `O=Cc1ccc(Sc2nc3c(F)c(F)c(F)cc3[nH]2)o1` is lower in melting point: 212 to 214 °C for the first, 152 °C for the second.

Compared with `N#Cc1nn(-c2c(Cl)cc(C(F)(F)F)cc2Cl)c(N)c1C=NO`, `CC(C)(C)ONC(=O)[C@H]1CNCCN1C(=O)OC(C)(C)C` is lower in melting point: 175 to 178 °C for the first, 113 to 114 °C for the second.
